Drawing on US20260297070A1, “CYCLIC [COMPOUND LEFT OUT] WRN INHIBITORS” (Nimbus Wadjet, Inc., priority 2023, published 2026), this text covers IC50 for 30 compounds.

Molecules are shown by their SMILES. A value given as a limit tells only on which side of the number the result lay.

T1 sequence (Q14191 with tags, fused parts or gaps L1074F limits assumed): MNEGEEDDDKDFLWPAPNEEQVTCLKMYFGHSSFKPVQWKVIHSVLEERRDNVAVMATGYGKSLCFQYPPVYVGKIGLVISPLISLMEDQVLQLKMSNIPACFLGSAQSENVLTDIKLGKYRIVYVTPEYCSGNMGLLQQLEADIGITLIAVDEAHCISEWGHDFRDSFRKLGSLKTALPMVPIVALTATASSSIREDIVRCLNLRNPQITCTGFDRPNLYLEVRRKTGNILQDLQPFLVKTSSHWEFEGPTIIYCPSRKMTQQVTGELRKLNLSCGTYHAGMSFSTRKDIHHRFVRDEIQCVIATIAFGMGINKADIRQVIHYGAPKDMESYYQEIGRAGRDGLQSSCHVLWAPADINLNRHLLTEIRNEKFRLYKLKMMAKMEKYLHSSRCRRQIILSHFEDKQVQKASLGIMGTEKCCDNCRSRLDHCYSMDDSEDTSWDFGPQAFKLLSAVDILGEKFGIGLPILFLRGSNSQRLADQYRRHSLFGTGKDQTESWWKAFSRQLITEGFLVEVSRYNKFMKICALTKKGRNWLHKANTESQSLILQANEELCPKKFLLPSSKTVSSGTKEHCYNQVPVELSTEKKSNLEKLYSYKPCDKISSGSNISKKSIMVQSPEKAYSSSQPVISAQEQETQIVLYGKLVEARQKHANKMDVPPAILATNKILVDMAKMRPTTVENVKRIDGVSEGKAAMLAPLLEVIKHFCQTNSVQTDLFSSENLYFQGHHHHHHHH

The assay has as its target T1, human Werner helicase (WRN-BV08, Uniprot Q14191, amino acids 517-1235 with L1074F point mutation) (Homo sapiens, UniProt Q14191, L1074F).
T1 construct: Uniprot Q14191, amino acids 517-1235 with L1074F point mutation; TEV-cleavable 8×His (C, cleaved yes); made in house; host or cells: Sf9 insect cells (baculovirus)
Briefly: WRN (BV08) ADP-Glo Assay. Type of assay: biochemical. The settings on record: 0.15 nM WRN, 5 μM ATP, 0.1 nM DNA duplex, 15 min preincubation, 60 min at 25° C., pH 7.5, 1% DMSO; read-out: ADP-Glo_hWRN_IC50. A digest of the protocol: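 WRN 0.15 nM + cpd, 15 min 25 °C; add 5 μM ATP / 0.1 nM annealed DNA duplex; 60 min 25 °C; ADP-Glo stop, RLU. Buffer 20 mM Bicine pH 7.5, 1 mM MgCl2, 10 mM KCl, 1 mM TCEP. IC50, 4-parameter fit.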
As to `O=C(CC1CCN(c2ccccc2)CC1)N(Cc1ccncc1)C1C=CS(=O)(=O)C1` (stereo not drawn) [I-552, N-(1,1-dioxo-2,3-dihydro-1lambda6-thiophen-3-yl)-2-(1-phenylpiperidin-4-yl)-N-[(pyridin-4-yl)methyl]acetamide], the IC50 was more than 50 µM.
Turning to `O=C(c1ccncc1)N(CCc1ccc(-n2cccc2)cc1)C1C=CS(=O)(=O)C1` (stereo not drawn) [I-553, N-(1,1-dioxo-2,3-dihydro-1lambda6-thiophen-3-yl)-N-{2-[4-(1H-pyrrol-1-yl)phenyl]ethyl}pyridine-4-carboxamide], the IC50 is more than 50 µM.
In the case of `CS(=O)(=O)N1CCN(C(C(=O)N(Cc2ccncc2)C2C=CS(=O)(=O)C2)c2ccc(-n3cccc3)cc2)CC1` (stereo not drawn) [I-554, N-(1,1-dioxo-2,3-dihydro-1lambda6-thiophen-3-yl)-2-(4-methanesulfonylpiperazin-1-yl)-N-[(pyridin-4-yl)methyl]-2-[4-(1H-pyrrol-1-yl)phenyl]acetamide] it was more than 50 µM.
Regarding `COc1ccc(-c2ccc(CC(=O)N(Cc3ccncc3)C3C=CS(=O)(=O)C3)cc2)cc1` (stereo not drawn) [I-555, N-(1,1-dioxo-2,3-dihydro-1lambda6-thiophen-3-yl)-2-{4′-methoxy-[1,1′-biphenyl]-4-yl}-N-[(pyridin-4-yl)methyl]acetamide], the IC50 was more than 50 µM.
In the case of `COc1cccc(-c2ccc(CC(=O)N(Cc3ccncc3)C3C=CS(=O)(=O)C3)cc2)c1` (stereo not drawn) [I-556, N-(1,1-dioxo-2,3-dihydro-1lambda6-thiophen-3-yl)-2-{3′-methoxy-[1,1′-biphenyl]-4-yl}-N-[(pyridin-4-yl)methyl]acetamide] it was more than 50 µM; in that of `O=C(CN1CCN(c2ccccc2)CC1)N(Cc1ccncc1)C1C=CS(=O)(=O)C1` (stereo not drawn) [I-557, N-(1,1-dioxo-2,3-dihydro-1lambda6-thiophen-3-yl)-2-(4-phenylpiperazin-1-yl)-N-[(pyridin-4-yl)methyl]acetamide], more than 50 µM; in that of `O=C(Cc1ccc(-c2nnco2)cc1)N(Cc1ccncc1)C1C=CS(=O)(=O)C1` (stereo not drawn) [I-558, N-(1,1-dioxo-2,3-dihydro-1lambda6-thiophen-3-yl)-2-[4-(1,3,4-oxadiazol-2-yl)phenyl]-N-[(pyridin-4-yl)methyl]acetamide], more than 50 µM.
In the case of `CC(C)C(=O)NC(Cc1c[nH]c2ccccc12)C(=O)N(Cc1ccncc1)C1C=CS(=O)(=O)C1` (stereo not drawn) [I-559, N-(1,1-dioxo-2,3-dihydro-1lambda6-thiophen-3-yl)-3-(1H-indol-3-yl)-2-(2-methylpropanamido)-N-[(pyridin-4-yl)methyl]propanamide] it was more than 50 µM.
In the case of `O=C(CCc1cnc2n1CCCCC2)N(Cc1ccncc1)C1C=CS(=O)(=O)C1` (stereo not drawn) [I-560, N-(1,1-dioxo-2,3-dihydro-1lambda6-thiophen-3-yl)-3-{5H,6H,7H,8H,9H-imidazo[1,2-a]azepin-3-yl}-N-[(pyridin-4-yl)methyl]propanamide] it was more than 50 µM; in that of `CNC(=O)CC(C(=O)N(Cc1ccncc1)C1C=CS(=O)(=O)C1)c1ccc(-c2ccc(F)cc2)cc1` (stereo not drawn) [I-562, N-(1,1-dioxo-2,3-dihydro-1lambda6-thiophen-3-yl)-2-{4′-fluoro-[1,1′-biphenyl]-4-yl}-N′-methyl-N-[(pyridin-4-yl)methyl]butanediamide], more than 50 µM; in that of `CC(=O)NCC(C(=O)N(Cc1ccncc1)C1C=CS(=O)(=O)C1)c1ccc(-c2ccc(F)cc2)cc1` (stereo not drawn) [I-563, N-(1,1-dioxo-2,3-dihydro-1lambda6-thiophen-3-yl)-3-acetamido-2-{4′-fluoro-[1,1′-biphenyl]-4-yl}-N-[(pyridin-4-yl)methyl]propanamide], more than 50 µM.
Consider `O=C(Cc1ccc(N2CCOCC2)cc1)N(Cc1ccncc1)C1C=CS(=O)(=O)C1` (stereo not drawn) [I-564, N-(1,1-dioxo-2,3-dihydro-1lambda6-thiophen-3-yl)-2-[4-(morpholin-4-yl)phenyl]-N-[(pyridin-4-yl)methyl]acetamide], for which the IC50 was more than 50 µM.
For `Cn1cc(CCC(=O)N(Cc2ccncc2)C2C=CS(=O)(=O)C2)c2ccc(Br)cc21` (stereo not drawn) [I-565, 3-(6-bromo-1-methyl-1H-indol-3-yl)-N-(1,1-dioxo-2,3-dihydro-1lambda6-thiophen-3-yl)-N-[(pyridin-4-yl)methyl]propanamide], the IC50 is more than 50 µM.
In the case of `CC1=CC(N(Cc2ccccc2)C(=O)Cc2ccc(-n3cccc3)cc2)CS1(=O)=O` (stereo not drawn) [I-566, 2-(4-(1H-pyrrol-1-yl)phenyl)-N-benzyl-N-(5-methyl-1,1-dioxido-2,3-dihydrothiophen-3-yl)acetamide] it was more than 50 µM; in that of `CN(C)Cc1cccn1-c1ccc(CC(=O)N(Cc2ccccc2)C2C=CS(=O)(=O)C2)cc1` (stereo not drawn) [I-567, N-benzyl-2-(4-{2-[(dimethylamino)methyl]-1H-pyrrol-1-yl}phenyl)-N-(1,1-dioxo-2,3-dihydro-1lambda6-thiophen-3-yl)acetamide], more than 50 µM; in that of `COCc1cccn1-c1ccc(CC(=O)N(Cc2ccccc2)C2C=CS(=O)(=O)C2)cc1` (stereo not drawn) [I-568, N-benzyl-N-(1,1-dioxo-2,3-dihydro-1lambda6-thiophen-3-yl)-2-{4-[2-(methoxymethyl)-1H-pyrrol-1-yl]phenyl}acetamide], more than 50 µM.
In the case of `CC(C)(C)OC(=O)N1CC(C(=O)N(Cc2ccncc2)C2C=CS(=O)(=O)C2)c2ccc(-c3ccc(F)cc3)cc21` (stereo not drawn) [I-569, tert-butyl 3-[(1,1-dioxo-2,3-dihydro-1lambda6-thiophen-3-yl)[(pyridin-4-yl)methyl]carbamoyl]-6-(4-fluorophenyl)-2,3-dihydro-1H-indole-1-carboxylate] it was more than 50 µM.
In the case of `O=C(C1CC(c2ccccc2)C1)N(Cc1ccncc1)C1C=CS(=O)(=O)C1` (stereo not drawn) [I-570, N-(1,1-dioxo-2,3-dihydro-1lambda6-thiophen-3-yl)-3-phenyl-N-[(pyridin-4-yl)methyl]cyclobutane-1-carboxamide] it was more than 50 µM; in that of `O=C(CN1CCC(c2ccccc2)CC1)N(Cc1ccncc1)C1C=CS(=O)(=O)C1` (stereo not drawn) [I-571, N-(1,1-dioxo-2,3-dihydro-1lambda6-thiophen-3-yl)-2-(4-phenylpiperidin-1-yl)-N-[(pyridin-4-yl)methyl]acetamide], more than 50 µM; in that of `O=C(CN1CCC(C(F)(F)F)CC1)N(Cc1ccncc1)C1C=CS(=O)(=O)C1` (stereo not drawn) [I-572, N-(1,1-dioxo-2,3-dihydro-1lambda6-thiophen-3-yl)-N-[(pyridin-4-yl)methyl]-2-[4-(trifluoromethyl)piperidin-1-yl]acetamide], more than 50 µM.
On to `COc1cc(CN(C(=O)Cc2ccc(-c3csc(C)n3)cc2F)C2C=CS(=O)(=O)C2)ccn1` (stereo not drawn) [I-573, N-(1,1-dioxo-2,3-dihydro-1lambda6-thiophen-3-yl)-2-[2-fluoro-4-(2-methyl-1,3-thiazol-4-yl)phenyl]-N-[(2-methoxypyridin-4-yl)methyl]acetamide], for which the IC50 is more than 50 µM.
In the case of `CNC(=O)CC(C(=O)N(Cc1ccnc(OC)c1)C1C=CS(=O)(=O)C1)c1ccc(-c2ccc(F)cc2)cc1` (stereo not drawn) [I-574, N-(1,1-dioxo-2,3-dihydro-1lambda6-thiophen-3-yl)-2-{4′-fluoro-[1,1′-biphenyl]-4-yl}-N-[(2-methoxypyridin-4-yl)methyl]-N′-methylbutanediamide], the IC50 is more than 50 µM.
In the case of `O=C(C1CC(Cc2ccccc2)=NO1)N(Cc1ccncc1)C1C=CS(=O)(=O)C1` (stereo not drawn) [I-579, 3-benzyl-N-(1,1-dioxo-2,3-dihydro-1lambda6-thiophen-3-yl)-N-[(pyridin-4-yl)methyl]-4,5-dihydro-1,2-oxazole-5-carboxamide] it was more than 50 µM; in that of `O=C(Cc1nc(C2CC2)cs1)N(Cc1ccncc1)C1C=CS(=O)(=O)C1` (stereo not drawn) [I-580, 2-(4-cyclopropyl-1,3-thiazol-2-yl)-N-(1,1-dioxo-2,3-dihydro-1lambda6-thiophen-3-yl)-N-[(pyridin-4-yl)methyl]acetamide], more than 50 µM.
In the case of `O=C(N(Cc1ccncc1)C1C=CS(=O)(=O)C1)C(F)(F)n1cc(-c2ccccc2)nn1` (stereo not drawn) [I-581, N-(1,1-dioxo-2,3-dihydro-1lambda6-thiophen-3-yl)-2,2-difluoro-2-(4-phenyl-1H-1,2,3-triazol-1-yl)-N-[(pyridin-4-yl)methyl]acetamide] it was more than 50 µM; in that of `O=C(Cc1cnn(C2CC2)c1)N(Cc1ccncc1)C1C=CS(=O)(=O)C1` (stereo not drawn) [I-582, 2-(1-cyclopropyl-1H-pyrazol-4-yl)-N-(1,1-dioxo-2,3-dihydro-1lambda6-thiophen-3-yl)-N-[(pyridin-4-yl)methyl]acetamide], more than 50 µM; in that of `O=C([C@H]1[C@@H]2CCC[C@@H]21)N(Cc1ccncc1)C1C=CS(=O)(=O)C1` (stereo partly drawn) [I-583, (1R,5S,6R)-N-(1,1-dioxo-2,3-dihydro-1lambda6-thiophen-3-yl)-N-[(pyridin-4-yl)methyl]bicyclo[3.1.0]hexane-6-carboxamide], more than 50 µM.
On to `O=C(CC1CC(c2ccccc2)C1)N(Cc1ccncc1)C1C=CS(=O)(=O)C1` (stereo not drawn) [I-584, N-(1,1-dioxo-2,3-dihydro-1lambda6-thiophen-3-yl)-2-(3-phenylcyclobutyl)-N-[(pyridin-4-yl)methyl]acetamide], for which the IC50 is more than 50 µM.
In the case of `O=C1Nc2ccccc2C1CCC(=O)N(Cc1ccncc1)C1C=CS(=O)(=O)C1` (stereo not drawn) [I-585, N-(1,1-dioxo-2,3-dihydro-1lambda6-thiophen-3-yl)-3-(2-oxo-2,3-dihydro-1H-indol-3-yl)-N-[(pyridin-4-yl)methyl]propanamide] it was more than 50 µM; in that of `O=C(N(Cc1ccncc1)C1C=CS(=O)(=O)C1)C12CC(c3cccc(C(F)(F)F)c3)(C1)C2F` (stereo not drawn) [I-586, N-(1,1-dioxo-2,3-dihydro-1lambda6-thiophen-3-yl)-2-fluoro-N-[(pyridin-4-yl)methyl]-3-[3-(trifluoromethyl)phenyl]bicyclo[1.1.1]pentane-1-carboxamide], more than 50 µM.
